Laboratory results taken from publication PMC5472784, “Pyrazinamide and derivatives block ethylene biosynthesis by inhibiting ACC oxidase” (Nature Communications, 2017).

Legend:
[1] = test system: auxin response; experiment: Auxin response, pDR5::GFP reporter lines; format: in vivo, Arabidopsis thaliana; details: pDR5::GFP/Col-0 and pDR5::GFP/ein2-5
Procedure: (§1) GFP fluorescence and propidium iodide staining signals in roots were detected using Zeiss LSM-710 microscope. All seedlings were grown in the dark for 3 days on MS medium supplemented with the indicated treatments, and then mounted on glass slides and observed in water. For propidium iodide staining, roots were visualized in the presence of propidium iodide without fixation. ImageJ was used to process images and to quantify the fluorescent intensity of GFP.

[2] = test system: anthocyanin accumulation; experiment: Anthocyanin measurement; format: in vivo, Arabidopsis thaliana; details: 6-day-old Col-0 green seedlings
From the text: 6-day-old green seedlings grown on MS medium supplemented with different concentration of PZA were sampled for anthocyanin measurement by spectrophotometry. The content of anthocyanin is presented as (A535−A650)/g.

[3] = test system: Arabidopsis PSB-D suspension cultured cells; experiment: Wayne Test, conversion of PZA to POA in suspension cultured cells; format: cell-based, Arabidopsis thaliana; details: 500 μM PZA, 24 h, abolished in boiled cells
Procedure: 500 μM PZA were added to 50 ml Arabidopsis suspension cell log phase cultures or boiled cultures and incubated at 27 °C for 24 h. 1 ml cell culture was collected after centrifugation, and 10 μl 2% ferrous sulfate was added to the supernatant for colour development. The absorbance at 450 nm of each samples was measured by spectrophotometer and the POA concentration was calculated according to the POA-Abs450 standard curve drawn using the reference solutions of POA.
Arabidopsis suspension cells were cultured in liquid MS medium in the presence or absence of 500 μM PZA for 24 h. The culture supernatant was collected by centrifugation and alkalized (pH>11) using sodium hydroxide (NaOH), followed by extracting with ethyl acetate twice to eliminate lipid-soluble molecules. The aqueous phase was collected and acidified (pH<2) using hydrochloric acid (HCl). The protonated cultures were extracted with ethyl acetate five times to enrich POA. The resulting samples were concentrated by reduced pressure distillation and analysed using a Fourier Transform Ion Cyclotron Resonance Mass Spectrometer (Solarix XR, Bruker).

[4] = molecular target: T1, AtNIC2 (Arabidopsis thaliana, UniProt Q9FMX7); experiment: In vitro PZase assay (TLC, NMR); format: biochemical; details: 5 mM PZA, 12 h, 30 °C
T1 sequence (Q9FMX7 1-198): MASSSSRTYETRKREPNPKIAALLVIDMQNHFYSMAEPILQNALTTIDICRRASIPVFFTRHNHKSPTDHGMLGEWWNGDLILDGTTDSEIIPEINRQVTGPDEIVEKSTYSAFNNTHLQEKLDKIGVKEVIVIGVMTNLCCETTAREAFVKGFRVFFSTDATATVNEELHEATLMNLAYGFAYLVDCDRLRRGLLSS
From the text: (§2) Silica TLC plates were developed in dichloromethane/methanol (3:1), and analysed with ultraviolet.
For NMR analysis, the AtNIC2-catalysed PZase reaction was acidified using HCl and extracted using ethyl acetate. The solvent was removed by reduced pressure distillation. The sample was then re-dissolved in dimethyl sulfoxide-d6 and analysed using Bruker-400 MHz NMR (ARX400, Bruker).

[5] = molecular target: AtACO2 (Arabidopsis thaliana, UniProt Q41931); experiment: ACO enzymatic activity assay and kinetic analysis (ethylene by GC-FID); format: biochemical; details: even at a high concentration (2 mM)
[6] = molecular target: T2, AtNIC3 (Arabidopsis thaliana, UniProt Q9FMX8); experiment: In vitro PZase assay (TLC); format: biochemical; details: 5 mM PZA, 12 h, 30 °C
T2 sequence (Q9FMX8 1-198): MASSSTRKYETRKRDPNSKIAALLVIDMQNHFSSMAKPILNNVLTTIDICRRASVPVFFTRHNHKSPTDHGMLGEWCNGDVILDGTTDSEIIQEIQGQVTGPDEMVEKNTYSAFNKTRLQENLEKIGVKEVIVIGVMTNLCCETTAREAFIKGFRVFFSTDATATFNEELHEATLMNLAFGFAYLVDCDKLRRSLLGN
From the text: as §2

[7] = test system: ACC conjugating enzymes (ACC and M-ACC content of eto1-2 seedlings); experiment: Quantification of ACC and M-ACC; format: in vivo, Arabidopsis thaliana; details: 10-day-old green seedlings, 50 μM PZA
Procedure: 10-day-old green seedlings of eto1-2 under different treatments were ground in liquid nitrogen, and extracted with 5% SSA (sulfosalicylic acid). For ACC measurement, the extract was oxidized with 2 mM HgCl2, 0.33% NaOCl and 0.2 M NaOH, reacted on ice for 4 min, and then the ethylene production was determined with GC-FID. For M-ACC measurement, the extract was hydrolyzed using 2 M HCl followed by oxidization and ethylene production determination, and the content of ACC and M-ACC were calculated based on the ethylene production and efficiency of oxidization.

[8] = test system: Arabidopsis etiolated seedlings (Col-0, eto1-2, ctr1-1, ein2-5); experiment: Ethylene response phenotype of 3-day-old etiolated seedlings (hypocotyl and root length, root hairs, root cells); format: in vivo, Arabidopsis thaliana
[9] = test system: Arabidopsis PSB-D suspension cultured cells; experiment: Ethylene production of suspension cultured cells; format: cell-based, Arabidopsis thaliana
[10] = test system: GA response; experiment: GA response, pRGA::GFP-RGA reporter seedlings; format: in vivo, Arabidopsis thaliana; details: pRGA::GFP-RGA seedlings, 20, 50, 100 μM PZA
Procedure: as §1

[11] = test system: EIN3; experiment: EIN3 protein level (Western blot) and pEBS:GUS staining; format: in vivo, Arabidopsis thaliana; details: 1 μM ACC, 50, 100 and 200 μM PZA
[12] = test system: ethylene production of Arabidopsis seedlings; experiment: Measurement of ethylene production of seedlings (GC-FID); format: in vivo, Arabidopsis thaliana; details: etiolated and green seedlings, 50 μM
Procedure: Ethylene production was determined as follows: 30 3-day-old etiolated or 5-day-old green seedlings of Col-0, eto1-2 or other mutants were selected randomly and sealed in a 30 ml vial containing 3 ml liquid MS medium supplemented with indicated treatments. The vial was sealed with a rubber stopper for 24 h at 22 °C prior to ethylene sampling. A 250 μl sample of the headspace gas was withdrawn using a gas-tight syringe from each chamber through the septum stopper, and injected into a gas chromatograph (Agilent 6890NGC, Agilent Technologies, USA) that was equipped with a HP-PLOTQ column (40 m × 530 μm × 40 μm) and a flame ionization detector (FID)[44]. Separations were carried out at 60 °C using N2 as the carrier gas. The area of the ethylene peak was integrated with Agilent Chemstation and results were expressed as the average relative ethylene production (%) of each treatment.

Chain of AtACO2 (Q41931 1-303): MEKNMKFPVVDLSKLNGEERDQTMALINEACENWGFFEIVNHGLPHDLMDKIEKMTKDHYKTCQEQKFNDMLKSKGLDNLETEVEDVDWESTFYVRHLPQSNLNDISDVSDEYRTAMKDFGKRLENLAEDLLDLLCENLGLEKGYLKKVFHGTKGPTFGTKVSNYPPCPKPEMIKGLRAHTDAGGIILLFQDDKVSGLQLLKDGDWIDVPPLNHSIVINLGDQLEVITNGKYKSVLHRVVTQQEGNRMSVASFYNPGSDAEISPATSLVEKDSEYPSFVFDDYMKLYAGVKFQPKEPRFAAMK

SMILES: NC(=O)c1cnccn1 [PZA, pyrazinamide]
- effect on auxin response [1]: EIN2-dependent manner
- effect on anthocyanin accumulation [2]: virtually no effect
- conversion into POA in PSB-D culture [3]: converted into POA
- conversion of PZA into POA by AtNIC2 [4]: able to convert PZA into POA
- inhibition of the activity of AtACO2 [5]: no inhibition
- conversion of PZA into POA by AtNIC3 [6]: able to convert PZA into POA
- ACC level in eto1-2 [7]: slight increase
- M-ACC level in eto1-2 [7]: almost no change
- cell elongation in the root maturation zone of eto1-2 ([8]; 50 μM): promoted cell elongation
- root hair formation of eto1-2 ([8]; 50 μM): effectively suppressed
- size of the cell division zone of eto1-2 root ([8]; 50 μM): little effect
- short-root and short-hypocotyl phenotype of eto1-2 ([8]; 3-day-old etiolated eto1-2 seedlings, MS medium with compound (50 μM shown)): partially suppressed
- phenotype of ethylene signalling mutants ctr1-1 and ein2-5 ([8]; 3-day-old etiolated seedlings): little effect
- ACC-induced short hypocotyl and root phenotype ([8]; Col-0, 1 μM ACC, 50 or 100 μM PZA): significantly suppressed
- ethylene-induced phenotype ([8]; Col-0, 2 p.p.m. ethylene, 50 or 100 μM PZA): no effect
- lengths of hypocotyls and roots of wild-type (Col-0) ([8]; etiolated seedlings, increasing doses (1-100 μM)): slightly promoted
- ethylene production in suspension cultured cells [9]: inhibited
- effect on GA response [10]: virtually no effect
- ACC-induced EIN3 protein accumulation and transcriptional activation of target promoter [11]: inhibited
- ethylene production of eto1-2 [12]: effectively inhibited
